Test results from ChEMBL document CHEMBL1129258, “Synthesis and structure-activity relationships of 2-pyridones: a novel series of potent DNA gyrase inhibitors as antibacterial agents” (J Med Chem, 1996).
Values after ≈ are worked out from the molar mass of the structure shown.

Key:
[1] = In vitro antibacterial activity against gram-negative organism Pseudomonas aeruginosa DPHD-2862; format: functional; details: Pseudomonas aeruginosa; read-out: MIC
[2] = target: T1, DNA gyrase (Escherichia coli) (UniProt P0AES6+P0AES4); experiment: In vitro antibacterial activity against gram-positive organism Streptococcus bovis A-5169; format: functional; details: Streptococcus equinus
[3] = target: T2, DNA gyrase (Staphylococcus aureus) (UniProt P0A0K8+P20831); experiment: In vitro antibacterial activity against gram-positive organism Staphylococcus aureus 1775; format: functional
[4] = test system: Streptococcus pyogenes; experiment: In vitro antibacterial activity against gram-positive organism Streptococcus pyogenes EES61; format: functional; details: Streptococcus pyogenes; read-out: MIC
[5] = target: T2, DNA gyrase (Staphylococcus aureus); experiment: In vitro antibacterial activity against gram-positive organism Staphylococcus aureus ATCC 6538p; format: functional
[6] = target: T1, DNA gyrase (Escherichia coli); experiment: In vitro antibacterial activity against gram-negative organism Prov. stuartii CMX-640; format: functional; details: Providencia stuartii
[7] = target: T1, DNA gyrase (Escherichia coli); experiment: In vitro antibacterial against gram-negative organism Escherichia coli JUHL; format: functional; details: Escherichia coli K-12
[8] = target: T1, DNA gyrase (Escherichia coli); experiment: In vitro antibacterial activity against gram-positive organism Enterococcus faecium ATCC 8043; format: functional
[9] = target: T2, DNA gyrase (Staphylococcus aureus); experiment: In vivo efficacy against Staphylococcus aureus NCTC-10649M after oral administration; format: functional, organism-based
[10] = target: T1, DNA gyrase (Escherichia coli); experiment: In vitro antibacterial activity against gram-negative organism Klebsiella pneumoniae ATCC 8045; format: functional
[11] = In vivo efficacy against Pseudomonas aeruginosa 5007 after subcutaneous administration; format: functional; details: Pseudomonas aeruginosa, sc; read-out: ED50
[12] = In vitro antibacterial activity against gram-negative organism Pseudomonas aeruginosa 5007; format: functional
[13] = target: T2, DNA gyrase (Staphylococcus aureus); experiment: In vivo efficacy against Staphylococcus aureus NCTC-10649M after subcutaneous administration; format: functional, organism-based
[14] = target: T1, DNA gyrase (Escherichia coli); details: Escherichia coli K-12
Description: Concentration which causes 50% of the gyrase (Escherichia coli H560)-mediated maximal DNA cleavage.

[15] = target: T2, DNA gyrase (Staphylococcus aureus); experiment: In vitro antibacterial activity against gram-positive organism Staphylococcus aureus NCTC-10649M; format: functional
[16] = target: T1, DNA gyrase (Escherichia coli); experiment: In vitro antibacterial activity against gram-negative organism […] ATCC 13048; format: functional; details: Enterobacter aerogenes
[17] = target: T1, DNA gyrase (Escherichia coli); experiment: In vivo efficacy against Escherichia coli JUHL by subcutaneous administration; format: functional, organism-based; details: Escherichia coli K-12
[18] = target: T1, DNA gyrase (Escherichia coli); experiment: In vivo efficacy against Escherichia coli JUHL after oral administration; format: functional, organism-based; details: Escherichia coli K-12
[19] = test system: Pseudomonas aeruginosa; experiment: In vivo efficacy against Pseudomonas aeruginosa 5007 following p.o. administration.
[20] = Pseudomonas aeruginosa, read-out: MIC

SMILES | MIC [1] | MIC [2] | MIC [3] | MIC [4] | MIC [5] | MIC [6] | MIC [7] | MIC [8] | ED50 [9] | MIC [10] | MIC [12, 20] | ED50 [13] | MIC [15] | MIC [16] | ED50 [17] | ED50 [18] | ED50 [19] | MIC [12] | ED50 [11] | CC50 [14]
Cc1c(N2CC[C@H]([C@@H](C)N)C2)c(F)cn2c(=O)c(C(=O)O)cc(C3CC3)c12 | 3.1 µg/mL (≈ 8.3 µM) | 0.005 µg/mL (≈ 0.0134 µM) | 0.2 µg/mL (≈ 0.536 µM) | < 0.001 µg/mL | 0.002 µg/mL (≈ 0.00536 µM) | 0.39 µg/mL (≈ 1.04 µM) | 0.01 µg/mL (≈ 0.0268 µM) | 0.01 µg/mL (≈ 0.0268 µM) | 1.2 mg/kg | 0.01 µg/mL (≈ 0.0268 µM) | 0.2 µg/mL (≈ 0.536 µM) | 0.3 mg/kg | 0.002 µg/mL (≈ 0.00536 µM) | 0.02 µg/mL (≈ 0.0536 µM) |  |  |  |  | > 8 mg/kg | 0.6 µg/mL (≈ 1.61 µM)
NC1CCN(c2nc3c(-c4c(F)c(F)c(F)c(F)c4F)cc(C(=O)O)c(=O)n3cc2F)C1 (stereo not given) | > 100 µg/mL | > 100 µg/mL | > 100 µg/mL | > 100 µg/mL | 50 µg/mL (≈ 109 µM) | > 100 pug ml-1 | 6.2 µg/mL (≈ 13.5 µM) | > 100 µg/mL |  | 3.1 µg/mL (≈ 6.76 µM) | 50 µg/mL (≈ 109 µM) |  | 50 µg/mL (≈ 109 µM) | 6.2 µg/mL (≈ 13.5 µM) |  |  |  |  |  | 12.5 µg/mL (≈ 27.3 µM)
Cc1c(N2CC[C@@]3(C[C@H]3N)C2)c(F)cn2c(=O)c(C(=O)O)cc(C3CC3)c12 | 6.2 µg/mL (≈ 16.7 µM) |  | 0.39 µg/mL (≈ 1.05 µM) | 0.02 µg/mL (≈ 0.0538 µM) | 0.005 µg/mL (≈ 0.0135 µM) | 0.78 µg/mL (≈ 2.1 µM) | 0.01 µg/mL (≈ 0.0269 µM) | 0.05 µg/mL (≈ 0.135 µM) | 6.3 mg/kg | 0.01 µg/mL (≈ 0.0269 µM) | 0.39 µg/mL (≈ 1.05 µM) | 1.5 mg/kg | 0.01 µg/mL (≈ 0.0269 µM) | 0.05 µg/mL (≈ 0.135 µM) | 1.9 mg/kg | 12.8 mg/kg |  |  |  | 
CC(=O)N[C@H]1C[C@H](C)N(c2nc3c(-c4ccc(F)cc4F)cc(C(=O)O)c(=O)n3cc2F)C1 | > 100 µg/mL | 3.1 µg/mL (≈ 6.73 µM) | 25 µg/mL (≈ 54.3 µM) | 0.78 µg/mL (≈ 1.69 µM) | 0.1 µg/mL (≈ 0.217 µM) | 25 µg/mL (≈ 54.3 µM) | 0.78 µg/mL (≈ 1.69 µM) | 1.56 µg/mL (≈ 3.39 µM) |  | 0.39 µg/mL (≈ 0.847 µM) | 3.1 µg/mL (≈ 6.73 µM) |  | 0.2 µg/mL (≈ 0.434 µM) | 3.1 µg/mL (≈ 6.73 µM) |  |  |  |  |  | 1.3 µg/mL (≈ 2.82 µM)
O=C(O)c1cc(C2CC2)c2nc(N3CCNCC3)c(F)cn2c1=O | 100 µg/mL (≈ 301 µM) | 12.5 µg/mL (≈ 37.6 µM) | 50 µg/mL (≈ 150 µM) | 12.5 µg/mL (≈ 37.6 µM) | 0.78 µg/mL (≈ 2.35 µM) | 12.5 µg/mL (≈ 37.6 µM) | 0.05 µg/mL (≈ 0.15 µM) | 12.5 µg/mL (≈ 37.6 µM) |  | 0.05 µg/mL (≈ 0.15 µM) | 0.39 µg/mL (≈ 1.17 µM) |  | 1.56 µg/mL (≈ 4.69 µM) | 0.05 µg/mL (≈ 0.15 µM) |  |  |  |  |  | 2 µg/mL (≈ 6.02 µM)
O=C(O)c1cc(-c2ccc(F)cc2F)c2nc(N3CCC(O)C3)c(F)cn2c1=O (stereo not given) | > 100 µg/mL | 6.2 µg/mL (≈ 15.3 µM) | 100 µg/mL (≈ 247 µM) | 0.78 µg/mL (≈ 1.92 µM) | 0.05 µg/mL (≈ 0.123 µM) | 6.2 µg/mL (≈ 15.3 µM) | 0.1 µg/mL (≈ 0.247 µM) | 0.78 µg/mL (≈ 1.92 µM) |  | 0.05 µg/mL (≈ 0.123 µM) | 0.78 µg/mL (≈ 1.92 µM) |  | 0.05 µg/mL (≈ 0.123 µM) | 0.39 µg/mL (≈ 0.962 µM) |  |  |  |  |  | 0.5 µg/mL (≈ 1.23 µM)
CCc1cc(C(=O)O)c(=O)n2cc(F)c(N3CCC(N)C3)c(C)c12 (stereo not given) | 12.5 µg/mL (≈ 37.5 µM) | 0.78 µg/mL (≈ 2.34 µM) | 12.5 µg/mL (≈ 37.5 µM) | 0.39 µg/mL (≈ 1.17 µM) | 0.1 µg/mL (≈ 0.3 µM) | 0.78 µg/mL (≈ 2.34 µM) | 0.01 µg/mL (≈ 0.03 µM) | 0.2 µg/mL (≈ 0.6 µM) |  | 0.02 µg/mL (≈ 0.06 µM) | 0.2 µg/mL (≈ 0.6 µM) |  | 0.1 µg/mL (≈ 0.3 µM) | 0.05 µg/mL (≈ 0.15 µM) |  |  |  |  |  | 3.2 µg/mL (≈ 9.6 µM)

The next lines start with results.

MIC [1] | MIC [2] | MIC [3] | MIC [4] | MIC [5] | MIC [6] | MIC [7] | MIC [8] | ED50 [9] | MIC [10] | MIC [12, 20] | ED50 [13] | MIC [15] | MIC [16] | ED50 [17] | ED50 [18] | ED50 [19] | MIC [12] | SMILES | ED50 [11] | CC50 [14]
6.2 µg/mL (≈ 16.7 µM) | 0.39 µg/mL (≈ 1.05 µM) | 6.2 µg/mL (≈ 16.7 µM) |  | 0.05 µg/mL (≈ 0.135 µM) | 0.39 µg/mL (≈ 1.05 µM) | 0.05 µg/mL (≈ 0.135 µM) | 0.2 µg/mL (≈ 0.538 µM) | 1.5 mg/kg | 0.02 µg/mL (≈ 0.0538 µM) | 0.39 µg/mL (≈ 1.05 µM) | 0.6 mg/kg | 0.1 µg/mL (≈ 0.269 µM) | 0.05 µg/mL (≈ 0.135 µM) | 0.5 mg/kg | 1.1 mg/kg | 17.9 mg/kg |  | Cc1c(N2C[C@H]3CCN[C@H]3C2)c(F)cn2c(=O)c(C(=O)O)cc(C3CC3)c12 (single isomer, unassigned) | 5 mg/kg | 
 | 0.05 µg/mL (≈ 0.13 µM) | 0.78 µg/mL (≈ 2.02 µM) |  | 0.01 µg/mL (≈ 0.0259 µM) | 0.78 µg/mL (≈ 2.02 µM) | 0.05 µg/mL (≈ 0.13 µM) | 0.1 µg/mL (≈ 0.259 µM) | 3.1 mg/kg | 0.01 µg/mL (≈ 0.0259 µM) |  | 0.9 mg/kg | 0.02 µg/mL (≈ 0.0519 µM) | 0.05 µg/mL (≈ 0.13 µM) | 1 mg/kg | 3.3 mg/kg | 36.4 mg/kg |  | Cc1c(N2C[C@@H]3CCCN[C@@H]3C2)c(F)cn2c(=O)c(C(=O)O)cc(C3CC3)c12 (stereo in doubt; 45n) |  | 0.3 µg/mL (≈ 0.778 µM)
 | 0.05 µg/mL (≈ 0.135 µM) | 0.39 µg/mL (≈ 1.05 µM) |  | 0.02 µg/mL (≈ 0.0538 µM) | 0.78 µg/mL (≈ 2.1 µM) | 0.02 µg/mL (≈ 0.0538 µM) | 0.05 µg/mL (≈ 0.135 µM) | 5 mg/kg | 0.01 µg/mL (≈ 0.0269 µM) |  | 0.7 mg/kg | 0.02 µg/mL (≈ 0.0538 µM) | 0.05 µg/mL (≈ 0.135 µM) | 0.4 mg/kg | 2.5 mg/kg |  |  | Cc1c(N2C[C@@H]3CCN[C@@H]3C2)c(F)cn2c(=O)c(C(=O)O)cc(C3CC3)c12 (stereo in doubt; 45o) |  | 0.1 µg/mL (≈ 0.269 µM)
6.2 µg/mL (≈ 15.5 µM) | 0.01 µg/mL (≈ 0.025 µM) | 0.39 µg/mL (≈ 0.976 µM) | 0.02 µg/mL (≈ 0.0501 µM) | 0.005 µg/mL (≈ 0.0125 µM) | 0.78 µg/mL (≈ 1.95 µM) | 0.02 µg/mL (≈ 0.0501 µM) | 0.02 µg/mL (≈ 0.0501 µM) |  | 0.02 µg/mL (≈ 0.0501 µM) |  |  | 0.005 µg/mL (≈ 0.0125 µM) | 0.1 µg/mL (≈ 0.25 µM) |  |  |  | 0.39 pug ml-1 | Cc1c(N2C[C@H]3CCC[C@H](N)[C@H]3C2)c(F)cn2c(=O)c(C(=O)O)cc(C3CC3)c12 |  | 0.3 µg/mL (≈ 0.751 µM)
